Earlier results as cited in patent US20260146084A1, “METHODS FOR TREATING MYELOFIBROSIS AND RELATED CONDITIONS” (Disc Medicine, Inc., priority 2019, published 2026).

How the values were obtained:
[1] = tested on: pro-inflammatory cytokines; conditions: mouse models
JAK2 = JAK2 (Homo sapiens, UniProt O60674)
[2] = target: T1, ACVR1 (HJV signaling partner) (Homo sapiens, UniProt Q04771)
T1 sequence (Q04771 21-509): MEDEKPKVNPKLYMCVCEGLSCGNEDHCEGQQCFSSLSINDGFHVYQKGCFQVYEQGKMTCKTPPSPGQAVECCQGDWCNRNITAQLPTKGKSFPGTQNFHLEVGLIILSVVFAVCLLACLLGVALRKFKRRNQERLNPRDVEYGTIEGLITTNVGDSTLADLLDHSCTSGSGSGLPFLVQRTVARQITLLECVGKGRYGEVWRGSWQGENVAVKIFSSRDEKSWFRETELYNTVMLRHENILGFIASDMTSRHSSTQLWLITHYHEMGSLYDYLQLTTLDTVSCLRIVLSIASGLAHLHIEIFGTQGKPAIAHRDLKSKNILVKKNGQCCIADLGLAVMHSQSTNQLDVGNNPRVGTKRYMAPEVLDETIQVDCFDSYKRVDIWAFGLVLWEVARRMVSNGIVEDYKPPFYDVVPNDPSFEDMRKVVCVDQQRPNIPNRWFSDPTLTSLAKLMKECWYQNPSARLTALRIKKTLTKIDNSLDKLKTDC

JAK1 = JAK1 (Homo sapiens, UniProt P23458)
Chain of JAK1 (P23458 whole entry): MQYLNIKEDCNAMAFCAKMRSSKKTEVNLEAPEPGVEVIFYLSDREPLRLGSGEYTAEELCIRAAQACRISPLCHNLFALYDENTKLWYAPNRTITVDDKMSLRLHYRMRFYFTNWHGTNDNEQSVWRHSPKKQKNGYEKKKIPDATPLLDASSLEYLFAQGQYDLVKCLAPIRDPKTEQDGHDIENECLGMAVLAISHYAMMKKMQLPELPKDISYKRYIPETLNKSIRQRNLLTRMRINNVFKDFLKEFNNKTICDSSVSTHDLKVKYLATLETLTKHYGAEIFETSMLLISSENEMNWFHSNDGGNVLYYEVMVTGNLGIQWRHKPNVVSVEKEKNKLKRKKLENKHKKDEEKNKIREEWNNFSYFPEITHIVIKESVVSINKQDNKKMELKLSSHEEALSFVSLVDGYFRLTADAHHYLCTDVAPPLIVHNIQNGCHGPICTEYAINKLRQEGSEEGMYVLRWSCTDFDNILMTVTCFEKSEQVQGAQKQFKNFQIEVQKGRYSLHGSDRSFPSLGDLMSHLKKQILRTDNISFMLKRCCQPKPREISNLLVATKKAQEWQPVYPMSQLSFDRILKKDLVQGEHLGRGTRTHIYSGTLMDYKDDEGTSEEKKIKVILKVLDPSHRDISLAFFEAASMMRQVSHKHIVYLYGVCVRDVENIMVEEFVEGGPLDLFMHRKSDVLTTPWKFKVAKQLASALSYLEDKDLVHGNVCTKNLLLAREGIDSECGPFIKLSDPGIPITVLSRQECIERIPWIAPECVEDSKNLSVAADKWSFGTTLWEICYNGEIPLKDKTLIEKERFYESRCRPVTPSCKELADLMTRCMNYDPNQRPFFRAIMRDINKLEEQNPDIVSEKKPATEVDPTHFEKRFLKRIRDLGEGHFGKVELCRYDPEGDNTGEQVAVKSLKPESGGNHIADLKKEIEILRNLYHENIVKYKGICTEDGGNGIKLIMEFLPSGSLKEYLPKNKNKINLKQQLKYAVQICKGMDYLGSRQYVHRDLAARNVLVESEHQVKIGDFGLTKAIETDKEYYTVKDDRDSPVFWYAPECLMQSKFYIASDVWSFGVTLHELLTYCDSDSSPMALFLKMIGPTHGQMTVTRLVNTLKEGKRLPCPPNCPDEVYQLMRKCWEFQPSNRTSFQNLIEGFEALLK

Chain of JAK2 (O60674 whole entry): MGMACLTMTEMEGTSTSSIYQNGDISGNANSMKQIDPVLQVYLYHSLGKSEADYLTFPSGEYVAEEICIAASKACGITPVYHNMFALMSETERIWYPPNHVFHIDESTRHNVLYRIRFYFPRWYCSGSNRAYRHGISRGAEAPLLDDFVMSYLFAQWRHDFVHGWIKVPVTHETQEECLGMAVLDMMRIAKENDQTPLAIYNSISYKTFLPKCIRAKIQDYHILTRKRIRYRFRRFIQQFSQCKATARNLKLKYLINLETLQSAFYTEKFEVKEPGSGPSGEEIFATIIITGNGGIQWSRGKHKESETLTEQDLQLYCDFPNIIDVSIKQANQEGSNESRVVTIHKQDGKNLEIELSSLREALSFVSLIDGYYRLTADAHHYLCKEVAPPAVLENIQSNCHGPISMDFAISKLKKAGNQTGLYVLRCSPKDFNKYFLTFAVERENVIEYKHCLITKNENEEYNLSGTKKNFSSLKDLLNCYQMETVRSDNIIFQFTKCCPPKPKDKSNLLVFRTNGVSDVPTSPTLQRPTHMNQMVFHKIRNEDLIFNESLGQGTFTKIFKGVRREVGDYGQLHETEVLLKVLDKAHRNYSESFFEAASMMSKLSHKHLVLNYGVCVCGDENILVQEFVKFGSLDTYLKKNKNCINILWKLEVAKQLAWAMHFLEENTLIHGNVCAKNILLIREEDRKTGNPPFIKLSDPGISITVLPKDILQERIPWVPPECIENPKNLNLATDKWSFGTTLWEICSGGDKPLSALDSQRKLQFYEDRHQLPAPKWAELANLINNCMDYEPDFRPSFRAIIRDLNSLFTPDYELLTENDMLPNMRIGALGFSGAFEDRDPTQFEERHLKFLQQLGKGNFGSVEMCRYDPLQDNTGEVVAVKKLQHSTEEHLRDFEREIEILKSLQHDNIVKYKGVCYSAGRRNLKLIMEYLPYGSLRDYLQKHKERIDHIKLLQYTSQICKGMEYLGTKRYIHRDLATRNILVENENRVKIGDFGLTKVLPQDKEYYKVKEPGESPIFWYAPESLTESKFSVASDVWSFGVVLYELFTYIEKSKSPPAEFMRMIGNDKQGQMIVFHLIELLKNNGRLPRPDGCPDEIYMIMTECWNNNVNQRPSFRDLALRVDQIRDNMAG

In the case of Cc1noc2c1-c1ccccc1C(c1ccc(Cl)cc1)=N[C@H]2CC(N)=O [CP-0610], the pro-inflammatory cytokines [1] is given as “downregulated pro-inflammatory cytokines”.

For Cc1cnc(Nc2ccc(OCCN3CCCC3)cc2)nc1Nc1cccc(S(=O)(=O)NC(C)(C)C)c1 [Fedratinib], the effect on anemia (myelofibrosis patients) is listed as “worsens anemia”.

In the case of N#CCNC(=O)c1ccc(-c2ccnc(Nc3ccc(N4CCOCC4)cc3)n2)cc1 [Momelotinib], the effect on anemia (myelofibrosis patients) is given as “improves anemia”, the “effect on splenomegaly and disease symptoms” value (myelofibrosis patients) is given as “improving disease symptoms” and the “inhibition of JAK2” value (JAK2) is given as “inhibits”. The “inhibition of ACVR1” value [2] was “inhibits” and the “inhibition of JAK1” value (JAK1) was “inhibits”.

In the case of N#CC[C@H](C1CCCC1)n1cc(-c2ncnc3[nH]ccc23)cn1 [ruxolitinib], the effect on anemia (myelofibrosis patients) is given as “worsens anemia”.
